From patent publication US11046687B2, “Polycyclic amide compound, preparation process and use thereof” (HEBEI GRANDIOS PHARMA CO., LTD., priority 2018, dated 2021)

Tests used:
[1] = test system: breast cancer cells (MDA); assay: MTT assay, in vitro growth inhibition, MDA cells; assay type: cell-based; design: in vitro growth inhibition rate, MDA: unit not given here; details: test drug concentration 4 μg/mL, 37° C., 3 days; for inhibition at 4 µg/mL: 72 h, read-out: in vitro growth inhibition rate, MDA
Description: (§1) The in vitro cytotoxicity of the compounds of the present invention was tested with reference to the experimental methods reported in the literature (Liu Yanqin et al., Organic Chemistry, 2002, 22(4), 279-282). The human oral epithelial cancer cells (KB), human lung cancer cells (A-549), and breast cancer cells (MDA) were used to test the in vitro growth inhibition rate of the compounds by MTT assay. Cells were cultured at 37° C. for 3 days under a test drug concentration of 4 μg/mL.

[2] = test system: human lung cancer cells (A-549); assay: MTT assay, in vitro growth inhibition, A-549 cells; assay type: cell-based; design: in vitro growth inhibition rate, A549: unit not given here; details: test drug concentration 4 μg/mL, 37° C., 3 days; for inhibition at 4 µg/mL: Homo sapiens, A549, 72 h, read-out: in vitro growth inhibition rate, A549
Description: as §1

Structure (SMILES) | in vitro growth inhibition rate, MDA [1] | in vitro growth inhibition rate, A549 [2] | inhibition at 4 µg/mL [1] [%] | inhibition at 4 µg/mL [2] [%]
CCN(C)C(C)CNC(=O)c1cccc2cc3ccccc3nc12 (stereo not shown) [Compound 7] | 4.4 | −5.8 |  | 
Cc1cccc2nc3cccc(C(=O)NCC(C)N(C)C(C)C)c3nc12 (stereo not shown) [Compound 50, N-[2-(N-isopropylmethylamino)propyl]-1-methylphenazine-9-carboxamide] |  |  | -7.2 | -7.8
CCNC(C)CNC(=O)c1cccc2cc3ccccc3nc12 (stereo not shown) [Compound 6] | −1.5 | −5 |  | 
CCN(C)CCNC(=O)c1cn(-c2ccc(F)cc2)c(=O)c2cc3cccc(C)c3nc12 [Compound 86] | 14 | 9.8 |  | 
CCNCCNC(=O)c1cn(C)c(=O)c2cc3cccc(C)c3nc12 [Compound 87] | 3.9 | 5 |  | 
CNCCNC(=O)c1cn(-c2ccc(F)cc2)c(=O)c2cc3cccc(C)c3nc12 [Compound 85] | −1.8 | −3.4 |  | 
CCNCC(C)NC(=O)c1cccc2cc3ccccc3nc12 (stereo not shown) [Compound 22] | 2.5 | 3.1 |  | 
CNC(C)CNC(=O)c1cccc2cc3ccccc3nc12 (stereo not shown) [Compound 5] | −5.1 | −11 |  | 
CCN(C)CCNC(=O)c1cn(CC)c(=O)c2cc3cccc(C)c3nc12 [Compound 90, N-[2-(N-ethylmethylamino)ethyl]-2-ethyl-6-methyl-1-oxo-1,2-dihydrobenzo[b][1,6]naphthyridine-4-carboxamide] |  |  | 6.4 | 3.5
CCN(CC)C(C)CNC(=O)c1cccc2cc3ccccc3nc12 (stereo not shown) [Compound 8] | −4.7 | −6.6 |  | 
Cc1cccc2nc3cccc(C(=O)NC(C)CN(C)C(C)C)c3nc12 (stereo not shown) [Compound 66, N-[1-methyl-2-(N-isopropylmethylamino)ethyl]-1-methylphenazine-9-carboxamide] |  |  | 1.9 | 1.2
CN(C)CCNC(=O)c1cccc2cc3ccccc3nc12 [DACA (1), reference compound] |  |  | 2 | 1.7
CC(C)N(C)C(C)CNC(=O)c1cccc2cc3ccccc3nc12 (stereo not shown) [Compound 10, N-[2-(N-isopropylmethylamino)propyl]acridine-4-carboxamide] |  |  | 1.2 | 3.3
CCN(C)CCNC(=O)c1cn(C)c(=O)c2cc3cccc(C)c3nc12 [Compound 88] | 1.4 | 1.6 |  | 
